Data set [1] has as its system HepG2. The data set is described as follows: Cytotoxicity against human HepG2 cells at 10 uM after 48 hrs by MTT assay. The format is functional, cell-based. In general terms: Tetrazolium assays rely on reduction of a dye to a coloured formazan, in cell work by metabolically active cells.
Data set [2] in a line: Selectivity ratio of IC50 for human LO2 cells to IC50 for human HepG2 cells. The data set is classed as toxicity. The conditions noted are these: LO2 cells versus HepG2 cells, read-out: Ratio IC50.
The test system of data set [3] is HepG2. Description: Cytotoxicity against human HepG2 cells after 48 hrs by MTT assay. The data set is classed as functional, cell-based. The conditions noted are these: HepG2, 48 h.
In data set [4] the test system is L02. The data set is described as follows: Cytotoxicity against human LO2 cells after 48 hrs by MTT assay. To be noted: L02, 48 h. The format is cell-based.
A short description of data set [5]: Cytotoxicity against human Huh7S1 cells after 48 hrs by MTT assay. The format is functional, cell-based.
The nature of data set [6]: Selectivity ratio of IC50 for human LO2 cells to IC50 for human Huh7S1 cells. To be noted: LO2 cells versus Huh7S1 cells, read-out: Ratio IC50. The format is toxicity.

The source made the active and inactive calls. The rule behind the calls is not given here.

By IC50 is commonly meant the point on the concentration scale where inhibition reaches its midpoint. Read a low IC50 as inhibition by little substance.

Consider `CC(C)[C@@H](C)/C=C/[C@@H](C)[C@H]1CCC2=C3C=C[C@H]4C[C@@H](O)CC[C@]4(C)[C@H]3CC[C@@]21C`, for which, in data set [1], the outcome was inactive.
Consider `CNC(=O)c1cc(Oc2ccc(NC(=O)Nc3ccc(Cl)c(C(F)(F)F)c3)cc2)ccn1` [SORAFENIB], for which the selectivity ratio in data set [2] came to 1.6. Besides, the IC50 in data set [3] is 5.5 µM; in data set [4], 9.1 µM.
Regarding `CC(C)[C@@H](C)/C=C/[C@@H](C)[C@H]1CC[C@H]2C(=O)[C@@]3(CC[C@]12C)[C@@H](O)C[C@H]1C[C@@H](O)CC[C@@]13C`, the values for the selectivity ratio in data set [2] and in data set [6] were 2.5 and 3.7, respectively. For the same compound, the results for the half-inhibitory concentration (IC50) in data set [3], in data set [5] and in data set [4] were 9.1 µM, 6.2 µM and 22.8 µM, respectively.

Values taken from ChEMBL document CHEMBL4627372, “Spiroseoflosterol, a Rearranged Ergostane-Steroid from the Fruiting Bodies of Butyriboletus roseoflavus” (J Nat Prod, 2020).
